# Assays:
# [1] = target: Keap1/Nrf2 (Homo sapiens, UniProt Q14145); assay: Inhibition of Nrf2-Keap1 Kelch domain (unknown origin) protein-protein interaction in presence of biotin labeled 16mer ETGE peptide AFFAQLQLDEETGEFL; type: protein assay
# [2] = Solubility of compound in FASSIF at pH 6.5 incubated for 4 hrs by LC/MS analysis; type: ADME
# [3] = Solubility of compound in FeSSIF at pH 5 incubated for 4 hrs by LC/MS analysis; type: ADME
# [4] = Apparent permeability in human Caco-2 cells at 25 micromol/L incubated for 2 hrs by LC/MS/MS analysis; type: ADME, cell-based; settings: dose 25 µmol/L
# [5] = Metabolic stability in human liver microsomes assessed as parent compound remaining at 5 uM measured after 60 mins; type: ADME, Microsome; settings: read-out: Stability
# [6] = Metabolic stability in rat liver microsomes assessed as parent compound remaining at 5 uM measured after 60 mins; type: ADME, Microsome; settings: read-out: Stability
# [7] = target: Kelch-like ECH-associated protein 1 (Homo sapiens) (UniProt Q14145); assay: Binding affinity to Keap1 Kelch domain (unknown origin) assessed as change in entropy by isothermal titration calorimetry assay
# Sequence of Kelch-like ECH-associated protein 1 (Homo sapiens) (Q14145 whole entry, the tested form may be a part): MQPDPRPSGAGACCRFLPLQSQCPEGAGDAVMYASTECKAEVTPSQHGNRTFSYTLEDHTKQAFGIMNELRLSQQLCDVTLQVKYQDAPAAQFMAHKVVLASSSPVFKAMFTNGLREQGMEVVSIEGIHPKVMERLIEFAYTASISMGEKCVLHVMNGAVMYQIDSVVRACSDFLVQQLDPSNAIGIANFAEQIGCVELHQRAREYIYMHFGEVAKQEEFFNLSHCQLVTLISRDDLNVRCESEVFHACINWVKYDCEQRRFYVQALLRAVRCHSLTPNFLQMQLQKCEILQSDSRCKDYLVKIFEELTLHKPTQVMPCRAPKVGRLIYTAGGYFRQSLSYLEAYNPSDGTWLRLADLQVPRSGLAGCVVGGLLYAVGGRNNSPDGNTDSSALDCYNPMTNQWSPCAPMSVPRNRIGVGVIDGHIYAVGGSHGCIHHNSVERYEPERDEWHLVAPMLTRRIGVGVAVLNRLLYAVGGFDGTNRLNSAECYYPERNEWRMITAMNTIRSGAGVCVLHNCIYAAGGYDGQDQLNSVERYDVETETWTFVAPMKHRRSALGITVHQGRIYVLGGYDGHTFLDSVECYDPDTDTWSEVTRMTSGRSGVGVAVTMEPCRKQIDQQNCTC
# [8] = MRT in CD(SD) rat at 1 mg/kg, iv measured upto 25 hrs; type: ADME, organism-based; settings: in vivo
# [9] = MRT in CD(SD) rat at 3 mg/kg, po measured upto 25 hrs; type: ADME, organism-based; settings: in vivo
# [10] = Half life in CD(SD) rat at 1 mg/kg, iv measured upto 25 hrs; type: ADME, organism-based; settings: in vivo
# [11] = Tmax in CD(SD) rat at 3 mg/kg, po measured upto 25 hrs; type: ADME, organism-based; settings: in vivo
# [12] = Total clearance in CD(SD) rat at 1 mg/kg, iv measured upto 25 hrs; type: ADME, organism-based; settings: in vivo
# [13] = Volume of distribution in CD(SD) rat at 1 mg/kg, iv measured upto 25 hrs; type: ADME, organism-based; settings: in vivo
# [14] = AUC in CD(SD) rat at 1 mg/kg, iv measured upto 25 hrs; type: ADME, organism-based; design: time < 25 hrs, dose 1 mg/kg, route iv; settings: in vivo
# [15] = AUC in CD(SD) rat at 3 mg/kg, po measured upto 25 hrs; type: ADME, organism-based; design: time < 25 hrs, dose 3 mg/kg, route po; settings: in vivo
# [16] = Oral bioavailability in CD(SD) rat at 3 mg/kg measured upto 25 hrs; type: ADME, organism-based; settings: in vivo
# [17] = target: KEAP1/NRF2 (Rattus norvegicus) (UniProt O54968+P57790); assay: In vivo inhibition of Nrf2-Keap1 Kelch domain protein-protein interaction in po dosed Wistar rat kidney assessed as increase in HO-1 protein level incubated for 6 hrs by ELISA assay; type: functional, organism-based; settings: dose 3-30 mg/kg
# [18] = cells; settings: Homo sapiens, HRMC, 18 h
# Description: Upregulation of HO-1 expression in human HRMC cells incubated for 18 hrs by ELISA assay
# [19] = target: Kelch-like ECH-associated protein 1 (Homo sapiens) (UniProt Q14145)
# Description: Binding affinity to Keap1 Kelch domain (unknown origin) assessed as change in free energy by isothermal titration calorimetry assay
# [20] = target: Kelch-like ECH-associated protein 1 (Homo sapiens) (UniProt Q14145); remark: listed apart in the source
# Description: Binding affinity to Keap1 Kelch domain (unknown origin) assessed as change in enthalpy by isothermal titration calorimetry assay
# Sequence of Keap1/Nrf2 (Q16236 whole entry, the tested form may be a part): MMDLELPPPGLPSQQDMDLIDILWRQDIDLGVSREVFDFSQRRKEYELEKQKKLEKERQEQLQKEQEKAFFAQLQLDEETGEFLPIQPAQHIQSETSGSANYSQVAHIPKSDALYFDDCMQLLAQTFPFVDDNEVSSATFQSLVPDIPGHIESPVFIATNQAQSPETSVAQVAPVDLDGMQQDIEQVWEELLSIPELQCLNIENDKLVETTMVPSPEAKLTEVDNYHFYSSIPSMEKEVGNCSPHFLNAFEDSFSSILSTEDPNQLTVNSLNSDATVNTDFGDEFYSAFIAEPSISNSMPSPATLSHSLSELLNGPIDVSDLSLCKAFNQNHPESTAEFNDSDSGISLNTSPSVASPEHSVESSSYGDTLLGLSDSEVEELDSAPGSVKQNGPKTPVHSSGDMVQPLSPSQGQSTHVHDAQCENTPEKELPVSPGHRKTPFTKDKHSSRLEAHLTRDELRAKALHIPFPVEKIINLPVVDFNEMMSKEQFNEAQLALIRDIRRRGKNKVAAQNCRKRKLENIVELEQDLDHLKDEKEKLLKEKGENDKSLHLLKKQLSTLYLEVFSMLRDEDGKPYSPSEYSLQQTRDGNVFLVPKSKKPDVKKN
# Sequence of Keap1/Nrf2 (Q14145 whole entry, the tested form may be a part): as the sequence (Q14145 whole entry, the tested form may be a part) above
smiles,measurement,setting,value
Cc1ccc([C@@H](NC(=O)[C@@H](F)c2ccc3c(c2)CCCC3)[C@@H](C)C(=O)O)cc1,IC50,[1],0.089 µM
same,solubility at 4 h,[2],≥ 475 µM
same,solubility at 4 h,[3],303 µM
same,"Papp at 2 h, 25 µM",[4],33 ×10⁻⁶ cm/s
same,"remaining at 1 h, 5 µM",[5],70%
same,"remaining at 1 h, 5 µM",[6],87%
same,-TdeltaS,[7],-1.2 kcal/mol
same,MRT,[8],5.6 h
same,MRT,[9],10 h
same,half-life,[10],4.5 h
same,Tmax,[11],1.3 h
same,clearance,[12],0.5 mL/min/kg
same,Vd,[13],0.18 L/kg
same,AUC at 25 h,[14],79 µM·h
same,AUC at 25 h,[15],324 µM·h
same,bioavailability,[16],136%
same,inhibition,[17],Dose-Dependent Effect
same,IC50,[18],2 µM
Cc1ccc([C@@H](NC(=O)C(=O)c2ccccc2)[C@@H](C)C(=O)O)cc1,IC50,[1],> 100 µM
same,"Papp at 2 h, 25 µM",[4],1.7 ×10⁻⁶ cm/s
CO[C@H](C(=O)N[C@H](c1ccc(C)cc1)[C@@H](C)C(=O)O)c1ccccc1,IC50,[1],> 100 µM
same,"Papp at 2 h, 25 µM",[4],3.4 ×10⁻⁶ cm/s
Cc1ccc([C@@H](NC(=O)C(F)(F)c2ccccc2)[C@@H](C)C(=O)O)cc1,IC50,[1],8.9 µM
same,"Papp at 2 h, 25 µM",[4],15 ×10⁻⁶ cm/s
same,IC50,[18],66 µM
Cc1ccc([C@@H](NC(=O)Cc2ccccc2)[C@@H](C)C(=O)O)cc1,IC50,[1],67 µM
same,"Papp at 2 h, 25 µM",[4],2.3 ×10⁻⁶ cm/s
CC[C@@H](C(=O)O)[C@H](NC(=O)Cc1ccc2c(c1)CCCC2)c1ccc(C)cc1,IC50,[1],55 µM
Cc1ccc(C(NC(=O)Cc2ccc3c(c2)CCCC3)C2(C(=O)O)CC2)cc1 (stereo not given),IC50,[1],54 µM
CO[C@@H](C(=O)N[C@H](c1ccc(C)cc1)[C@@H](C)C(=O)O)c1ccccc1,IC50,[1],83 µM
Cc1ccc([C@@H](NC(=O)[C@H](O)c2ccccc2)[C@@H](C)C(=O)O)cc1,IC50,[1],> 100 µM
same,"Papp at 2 h, 25 µM",[4],0.27 ×10⁻⁶ cm/s
COc1ccc(S(=O)(=O)Nc2ccc(N3CCCCCC3)cc2C(=O)O)cc1,IC50,[1],37 µM
same,solubility at 4 h,[2],≥ 475 µM
same,solubility at 4 h,[3],424 µM
same,"Papp at 2 h, 25 µM",[4],13 ×10⁻⁶ cm/s
same,"remaining at 1 h, 5 µM",[5],0%
same,"remaining at 1 h, 5 µM",[6],0%
Cc1ccc([C@@H](NC(=O)[C@@H](F)c2ccccc2)[C@@H](C)C(=O)O)cc1,IC50,[1],3.5 µM
same,"Papp at 2 h, 25 µM",[4],12 ×10⁻⁶ cm/s
same,IC50,[18],36 µM
Cc1ccc([C@@H](CC(=O)O)NC(=O)Cc2ccc3c(c2)CCCC3)cc1,IC50,[1],> 100 µM
Cc1ccc(C(NC(=O)Cc2ccc3c(c2)CCCC3)C(C)(C)C(=O)O)cc1 (stereo not given),IC50,[1],17 µM
Cc1ccc([C@@H](NC(=O)Cc2ccc3c(c2)CCCC3)[C@@H](C)C(=O)O)cc1,IC50,[1],2.8 µM
same,"Papp at 2 h, 25 µM",[4],25 ×10⁻⁶ cm/s
same,-TdeltaS,[7],-3.7 kcal/mol
same,deltaG,[19],-8 kcal/mol
same,deltaH,[20],-4.3 kcal/mol
same,IC50,[18],56 µM
Cc1ccc([C@@H](NC(=O)[C@H](F)c2ccccc2)[C@@H](C)C(=O)O)cc1,IC50,[1],90 µM
same,"Papp at 2 h, 25 µM",[4],6.6 ×10⁻⁶ cm/s
Cc1ccc([C@H](CC(=O)O)NC(=O)Cc2ccc3c(c2)CCCC3)cc1,IC50,[1],39 µM
same,-TdeltaS,[7],-2.2 kcal/mol
same,deltaG,[19],-6.7 kcal/mol
same,deltaH,[20],-4.5 kcal/mol
Cc1ccc([C@@H](NC(=O)[C@@H](O)c2ccccc2)[C@@H](C)C(=O)O)cc1,IC50,[1],96 µM
same,"Papp at 2 h, 25 µM",[4],0.26 ×10⁻⁶ cm/s
CC[C@H](C(=O)O)[C@H](NC(=O)Cc1ccc2c(c1)CCCC2)c1ccc(C)cc1,IC50,[1],99 µM
Cc1ccc(C(CC(=O)O)NC(=O)Cc2ccc3c(c2)CCCC3)cc1 (stereo not given),IC50,[1],40 µM
same,solubility at 4 h,[2],432 µM
same,solubility at 4 h,[3],469 µM
same,"Papp at 2 h, 25 µM",[4],17 ×10⁻⁶ cm/s
same,"remaining at 1 h, 5 µM",[5],85%
same,"remaining at 1 h, 5 µM",[6],95%
Cc1ccc([C@@H](NC(=O)Cc2ccc3c(c2)CCCC3)[C@H](C)C(=O)O)cc1,IC50,[1],51 µM
